In patent US5529983A, “Use of small peptides in the treatment of psoriasis” (The United States of America as represented by the …, priority 1995, dated 1996):

Columns and labels:
[1] = Toxicity of peptide treatment in human patients; format: in vivo
Source text: Toxicity. As to toxicity, the complete schedule of peptide therapeutic agents above gave negative evidence of toxicity.

[2] = Six-week intravenous toxicity study in hamsters; format: in vivo
Source text: [D-ala^1 ]peptide-T-amide was given twice daily intravenously to hamsters for six weeks. […] Liver enzymes and kidney enzymes were normal after injection.

[3] = after injection twice daily intravenously for six weeks

| Compound | toxicity in the liver or kidney ([1]; In humans) | toxicity ([1]; preliminary findings, blood pressure fell when the infusion rate was increased) | Liver enzymes [2, 3] | kidney enzymes [2, 3] | histologic studies on all organs ([2]; twice daily intravenously for six weeks) |
| --- | --- | --- | --- | --- | --- |
| C[C@H](N)C(=O)N[C@@H](CO)C(=O)N[C@H](C(=O)N[C@H](C(=O)N[C@H](C(=O)N[C@@H](CC(N)=O)C(=O)N[C@@H](Cc1ccc(O)cc1)C(=O)N[C@H](C(=O)O)[C@@H](C)O)[C@@H](C)O)[C@@H](C)O)[C@@H](C)O [Peptide T] | no toxicity apparent | non-toxic with the exception of lowering the blood pressure on one occasion |  |  |  |
| C[C@@H](N)C(=O)N[C@@H](CO)C(=O)N[C@H](C(=O)N[C@H](C(=O)N[C@H](C(=O)N[C@@H](CC(N)=O)C(=O)N[C@@H](Cc1ccc(O)cc1)C(=O)N[C@H](C(N)=O)[C@@H](C)O)[C@@H](C)O)[C@@H](C)O)[C@@H](C)O [[D-ala^1]peptide-T-amide] |  |  | normal | normal | no significant difference |
